Assay results as given in article PMC7335187, “Super-assembly of ER-phagy receptor Atg40 induces local ER remodeling at contacts with forming autophagosomal membranes” (Nature Communications, 2020).
Where a SMILES comes first, the peptide text is derived from it.

Experiments:
Format in all cases: binding
[1] = target: Atg8 (Saccharomyces cerevisiae, UniProt P38182, K26P); assay: biochemical
Procedure: ITC experiments were performed using Microcal iTC200 calorimeter (Malvern Panalytical), with stirring at 1000 rpm at 25 °C. Atg40, FAM134B, SEC62, and RTN3 peptides were prepared as injection samples from the syringe. […] In total, 200 μl Atg8, LC3A, LC3B, LC3C, GABARAP, GABARAPL1, and GABARAPL2 with 10 times lower concentration than the syringe samples were filled in the cell. […] The titration involved 18 injections of 2 μl of the syringe sample at intervals of 120 s into a cell after one injection of 0.4 μl of syringe sample. Data sets obtained from the titration of the same syringe sample to the cell filled with buffer were used as reference data for subtraction of heat of dilution. MicroCal Origin 7.0 software was used for data analysis. Thermal measurement of the first injection of the syringe samples was removed from the analysis.

[2] = target: GABARAPL1 WT (Homo sapiens, UniProt Q9H0R8); assay: ITC of peptides with GABARAPL1; conditions: 25 °C, ± fitting error
Sequence of GABARAPL1 WT (Q9H0R8 whole entry, the tested form may be a part): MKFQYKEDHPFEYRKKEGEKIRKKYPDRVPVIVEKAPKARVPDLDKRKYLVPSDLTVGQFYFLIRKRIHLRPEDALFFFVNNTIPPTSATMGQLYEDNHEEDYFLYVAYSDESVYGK
Procedure: (§1) Some of peptides (Supplementary Table 4) and all proteins except Atg40-6His were expressed in E. coli BL21 (DE3). Bacteria were cultured at 37 °C until OD600 became 0.8–1.0 and further cultured at 16 °C with 100 μM IPTG overnight. After centrifugation, the pellets were resuspended with 20 ml PBS with 0.5 mM EDTA and lysed by sonication for 10 min. After centrifugation, the supernatants were incubated with GST-accept resin (Nacalai tesque). After three times wash by PBS, the proteins were eluted with glutathione buffer (10 mM glutathione and 50 mM Tris pH 8.0). The buffer of the eluates was exchanged with PBS by a Bio-Scale Mini BioGel P-6 desalting column (Bio-Rad). After incubation with GST-fused HRV 3 C protease at 4 °C overnight, the samples were subjected to a GST-accept resin column to remove excised GST and the protease. RTN3^245–264-GABARAP was purified by cation-exchange chromatography using CM Sepharose FF column (GE Healthcare) with 500 mM MES pH 6.0 as buffer B and 50 mM MES pH 6.0 and 1 M NaCl as buffer C. The samples were further subjected to size-exclusion chromatography with 20 mM HEPES pH 6.8, 150 mM sodium chloride except for mCherry-Atg8-CC^tetramer (20 mM HEPES pH 6.8, 500 mM sodium chloride) using a Superdex 75 10/300 or Superdex 200 26/60 column. […]

[3] = target: GABARAPL2 WT (Homo sapiens, UniProt P60520); assay: ITC of peptides with GABARAPL2; conditions: 25 °C, ± fitting error
Sequence of GABARAPL2 WT (P60520 whole entry): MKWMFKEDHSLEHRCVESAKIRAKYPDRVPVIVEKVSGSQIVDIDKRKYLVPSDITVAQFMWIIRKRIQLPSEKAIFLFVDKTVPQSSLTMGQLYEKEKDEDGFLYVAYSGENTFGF
Procedure: as §1

[4] = target: LC3A WT (Homo sapiens, UniProt Q9H492); assay: ITC of peptides with LC3A; conditions: 25 °C, ± fitting error
Procedure: (§2) Some of peptides (Supplementary Table 4) and all proteins except Atg40-6His were expressed in E. coli BL21 (DE3). Bacteria were cultured at 37 °C until OD600 became 0.8–1.0 and further cultured at 16 °C with 100 μM IPTG overnight. After centrifugation, the pellets were resuspended with 20 ml PBS with 0.5 mM EDTA and lysed by sonication for 10 min. After centrifugation, the supernatants were incubated with GST-accept resin (Nacalai tesque). After three times wash by PBS, the proteins were eluted with glutathione buffer (10 mM glutathione and 50 mM Tris pH 8.0). The buffer of the eluates was exchanged with PBS by a Bio-Scale Mini BioGel P-6 desalting column (Bio-Rad). After incubation with GST-fused HRV 3 C protease at 4 °C overnight, the samples were subjected to a GST-accept resin column to remove excised GST and the protease. RTN3^245–264-GABARAP was purified by cation-exchange chromatography using CM Sepharose FF column (GE Healthcare) with 500 mM MES pH 6.0 as buffer B and 50 mM MES pH 6.0 and 1 M NaCl as buffer C. The samples were further subjected to size-exclusion chromatography with 20 mM HEPES pH 6.8, 150 mM sodium chloride except for mCherry-Atg8-CC^tetramer (20 mM HEPES pH 6.8, 500 mM sodium chloride) using a Superdex 75 10/300 or Superdex 200 26/60 column. As described in Supplementary Table 4, the Atg40^237–252 M245A and Atg40^237–252 D243A D247A peptides were synthesized by Cosmo Bio, and the FAM134B^453–460 and SEC62^361–368 peptides were synthesized by BEX Co., Ltd. The Atg40^234–252 peptide and its variants were prepared using Liberty Blue peptide synthesizer (CEM Corporation). After dissolving these synthesized peptides in 300 μl water with ~10 μl ammonium hydroxide, they were subjected to size-exclusion chromatography with 20 mM HEPES pH 6.8 containing 150 mM sodium chloride using a Superdex 75 10/300 column.
Peptides used in ITC are listed in Supplementary Table 4. ITC experiments were performed using Microcal iTC200 calorimeter (Malvern Panalytical), with stirring at 1000 rpm at 25 °C. […]

[5] = target: LC3B WT (Rattus norvegicus, UniProt Q62625); assay: ITC of peptides with LC3B; conditions: 25 °C, ± fitting error
From the text: All plasmids for expression of recombinant proteins and peptides in bacteria were based on a pGEX6P-1 vector (GE Healthcare). Construction of pGEX6P-ScAtg8 (1-116) K26P and pGEX6P-rat LC3B (1-120) was previously described[35],[47]. All mutations were generated by PCR-based mutagenesis. The genes were amplified by PCR and inserted downstream of the HRV 3C protease recognition site by NEBuilder HiFi DNA Assembly Master Mix (New England Biolabs) except for that encoding human GABARAP (1-116), which was inserted using restriction enzymes for the NdeI and BamHI sites. Plasmids for expression of fusion proteins for crystallization were constructed by inserting the genes encoding Atg40^237–252, human FAM134B^450–468, human SEC62^361–376 with the T367D mutation, and human RTN3^245–264 isoform e into upstream of the sequence encoding Atg8 K26P of pGEX6P-Atg8 (the K26P mutation was introduced for stabilizing Atg8) or upstream of the sequence encoding GABARAP of pGEX6P-GABARAP (with the F3S V4T mutations for enhancing crystallization). For phase-separation experiments, the mCherry and BNDL1[25],[26] sequences were inserted into upstream and downstream of the ATG8 gene in pGEX6P-Atg8 K26P, respectively. pGEX-SNAP-40C was constructed by the removal of the HRV 3C protease recognition site and the insertion of the SNAP sequence from pSNAP-tag(T7) vector (New England Biolabs) with a linker (Gly–Gly–Gly–Ser–Gly–Gly–Gly) and Atg40^194–256 following a linker (Ser–Ala–Ser–Ser) to upstream and downstream of GST in pGEX6P-1 vector, respectively. In the construction of plasmids for peptide production, a Tyr residue was attached to their C termini for enabling the quantification by absorbance at 280 nm (Supplementary Table 4).
Some of peptides (Supplementary Table 4) and all proteins except Atg40-6His were expressed in E. coli BL21 (DE3). Bacteria were cultured at 37 °C until OD600 became 0.8–1.0 and further cultured at 16 °C with 100 μM IPTG overnight. After centrifugation, the pellets were resuspended with 20 ml PBS with 0.5 mM EDTA and lysed by sonication for 10 min. […]

[6] = target: LC3C WT (Homo sapiens, UniProt Q9BXW4); assay: ITC of peptides with LC3C; conditions: 25 °C, ± fitting error
Sequence of LC3C WT (Q9BXW4 whole entry): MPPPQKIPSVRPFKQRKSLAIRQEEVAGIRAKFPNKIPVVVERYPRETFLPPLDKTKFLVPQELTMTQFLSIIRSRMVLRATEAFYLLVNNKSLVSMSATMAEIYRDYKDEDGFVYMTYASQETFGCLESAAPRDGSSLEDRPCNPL
Procedure: as §2
Peptides used in ITC are listed in Supplementary Table 4. ITC experiments were performed using Microcal iTC200 calorimeter (Malvern Panalytical), with stirring at 1000 rpm at 25 °C. Atg40, FAM134B, SEC62, and RTN3 peptides were prepared as injection samples from the syringe. Concentrations of FAM134B, SEC62, and RTN3 peptides were 0.5 mM, whereas those of Atg40^234–252 and Atg40^237–252 peptides were 2.0 and 1.8 mM, respectively. In total, 200 μl Atg8, LC3A, LC3B, LC3C, GABARAP, GABARAPL1, and GABARAPL2 with 10 times lower concentration than the syringe samples were filled in the cell. As an exception, 1.8 mM Atg8 was filled in the cell when 1.8 mM Atg40^237–252 D243A D247A was in a syringe. The titration involved 18 injections of 2 μl of the syringe sample at intervals of 120 s into a cell after one injection of 0.4 μl of syringe sample. […]

Sequence of Atg8 (P38182 1-116 K26P): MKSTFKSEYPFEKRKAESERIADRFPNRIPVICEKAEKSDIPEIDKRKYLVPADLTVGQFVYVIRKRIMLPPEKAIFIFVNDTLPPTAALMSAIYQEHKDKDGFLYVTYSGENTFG

In the case of `CC[C@H](C)[C@H](NC(=O)[C@H](CC(=O)O)NC(=O)[C@H](CCC(=O)O)NC(=O)[C@H](CCSC)NC(=O)[C@H](Cc1ccccc1)NC(=O)[C@H](CC(=O)O)NC(=O)[C@H](Cc1ccc(O)cc1)NC(=O)[C@H](CC(=O)O)NC(=O)[C@H](CC(N)=O)NC(=O)[C@@H]1CCCN1C(=O)[C@H](Cc1ccccc1)NC(=O)[C@H](CCC(=O)O)NC(=O)[C@@H]1CCCN1C(=O)CN)C(=O)N[C@@H](CC(C)C)C(=O)N[C@@H](CC(=O)O)C(=O)N[C@@H](CCC(=O)O)C(=O)N[C@H](C(=O)O)[C@@H](C)O` [Atg40^237-252 WT] (H-GPEFPNDYDFMEDILDET-OH), the Kd [1] is reported as 570 ± 510 nM and the “N (site), stoichiometry of binding” value ([1]; ITC, 25 °C, peptide in syringe 2.0 or 1.8 mM, Atg8 in cell 10 times lower, single-site model, ± fitting error) is reported as 0.90 ± 0.03.

For `CC[C@H](C)[C@H](NC(=O)[C@H](CCC(N)=O)NC(=O)[C@H](CC(=O)O)NC(=O)[C@H](CC(C)C)NC(=O)[C@H](CCC(=O)O)NC(=O)[C@H](CO)NC(=O)[C@H](CCC(N)=O)NC(=O)[C@H](CC(=O)O)NC(=O)[C@H](CC(C)C)NC(=O)[C@H](CC(C)C)NC(=O)[C@H](CCC(=O)O)NC(=O)[C@H](Cc1ccccc1)NC(=O)[C@H](CC(=O)O)NC(=O)[C@H](CC(=O)O)NC(=O)CNC(=O)[C@H](CCC(=O)O)NC(=O)[C@H](CCC(=O)O)NC(=O)[C@@H](NC(=O)[C@H](CC(=O)O)NC(=O)[C@@H](NC(=O)[C@H](CC(=O)O)NC(=O)[C@H](CCC(=O)O)NC(=O)[C@H](CCC(=O)O)NC(=O)[C@@H]1CCCN1C(=O)CN)[C@@H](C)O)[C@@H](C)O)C(=O)N[C@@H](CCC(=O)O)C(=O)N[C@@H](CO)C(=O)N[C@@H](CCC(=O)O)C(=O)N[C@@H](CC(C)C)C(=O)N[C@@H](Cc1ccc(O)cc1)C(=O)O` [FAM134B^444-470 WT], the Kd ([2]; 0.5 mM peptide in syringe, GABARAPL1 WT in cell 10 times lower, single-site model) was 120 ± 40 nM, the Kd ([3]; 0.5 mM peptide in syringe, GABARAPL2 WT in cell 10 times lower, single-site model) was 300 ± 100 nM and the Kd ([4]; 0.5 mM peptide in syringe, LC3A WT in cell 10 times lower, single-site model) was 210 ± 30 nM. The Kd ([5]; 0.5 mM peptide in syringe, LC3B WT in cell 10 times lower, single-site model) was 620 ± 160 nM and the Kd ([6]; 0.5 mM peptide in syringe, LC3C WT in cell 10 times lower, single-site model, read-out: Kd) was 1110 ± 350 nM.

In the case of `CC[C@H](C)[C@H](NC(=O)[C@H](CCSC)NC(=O)[C@H](CCC(=O)O)NC(=O)[C@H](Cc1ccccc1)NC(=O)[C@H](CC(=O)O)NC(=O)[C@H](CC(N)=O)NC(=O)CNC(=O)[C@H](CC(N)=O)NC(=O)CNC(=O)[C@H](CO)NC(=O)[C@H](CO)NC(=O)[C@H](Cc1c[nH]cn1)NC(=O)[C@@H]1CCCN1C(=O)CN)C(=O)N[C@H](C(=O)N[C@@H](CCCCN)C(=O)N[C@@H](CCC(=O)O)C(=O)N[C@@H](CCC(=O)O)C(=O)N[C@@H](CC(C)C)C(=O)N[C@@H](CCC(=O)O)C(=O)N[C@@H](CCC(N)=O)C(=O)N[C@@H](CCC(N)=O)C(=O)N[C@H](C(=O)N[C@@H](CC(=O)O)C(=O)N[C@@H](Cc1ccc(O)cc1)C(=O)O)[C@@H](C)O)[C@@H](C)O` [SEC62^355-376 WT] (H-GPHSSGNGNDFEMITKEELEQQTDY-OH), the “N (site), stoichiometry of binding” value ([2]; GABARAPL1 WT in cell) is reported as 0.83 ± 0.01, the “N (site), stoichiometry of binding” value ([3]; GABARAPL2 WT in cell, N fixed to 1.0 when fitting not convergent) is reported as 0.78 ± 0.01 and the “N (site), stoichiometry of binding” value ([4]; LC3A WT in cell) is reported as 0.78 ± 0.01. For the same compound, the “N (site), stoichiometry of binding” value ([5]; LC3B WT in cell, N fixed to 1.0 when fitting not convergent) was 0.74 ± 0.01 and the “N (site), stoichiometry of binding” value ([6]; LC3C WT in cell, N fixed to 1.0 when fitting not convergent) was 0.46 ± 0.02.
